Assays:
MGC-803 = test: MTT assay, antiproliferative activity against MGC-803; type: cell-based, human
Method: (§1) Human gastric carcinoma cell line MGC-803, human breast adenocarcinoma cell line MCF-7, human lung carcinoma cell lines (PC-9, A549, and H1975), and human immortalized gastric mucosa epithelial cell line GES-1 were purchased from the Cell Bank of Shanghai Institute of Biochemistry and Cell Biology (Shanghai, China), and all of them were cultured in RPMI-1640 and DMEM complete medium (Solarbio, Beijing, China) at 37 °C in a 5% CO2 humidified atmosphere.
(§2) Briefly, cells were incubated with different concentrations of the test compound for different hours in each experiment for 72 h, followed by adding 20 μL MTT solution to each well, which was then incubated for another 4 h. An enzyme-linked immunosorbent assay reader (BioTek, South Plainfield, VT, USA) was used to measure absorbance values at 490 nm, and SPSS20 software was used to calculate the cell viability and IC50 values.

MCF-7 = test: MTT assay, antiproliferative activity against MCF-7; type: cell-based, human
Method: as §1, §2

PC-9 = test: MTT assay, antiproliferative activity against PC-9; type: cell-based, human
Method: as §1, §2

A549 = test: MTT assay, antiproliferative activity against A549; type: cell-based, human
Method: as §1, §2

H1975 = test: MTT assay, antiproliferative activity against H1975; type: cell-based, human
Method: as §1, §2

GES-1 = test: MTT assay, toxicity toward normal gastric epithelial cell line GES-1; type: cell-based, human; conditions: MTT, 72 h
Method: as §1, §2

[1] = tested on: xenograft model carrying MGC-803 cells; test: In vivo anti-tumor activity, gastric cancer xenograft model; set-up: species or system mice; conditions: 10 mg/kg intravenous every three days
Method: Male mice (23–25 g, aged 5–6 weeks) were obtained from Beijing Vital River Laboratory Animal Technology Co., Ltd. (Beijing, China). All animal treatments were performed under the guidelines of the National Institutes of Health Guide for the Care and Use of Laboratory Animals using an approved animal protocol by the Zhengzhou University Committee on Animal Care (2020CHEM-ZZU-086). 1.0 × 10^7 MGC-803 cells were implanted in the right flank of mice subcutaneously. After 16 days, the tumor volume reached 100 mm^3, followed by being randomly divided into three groups (n = 7): solvent group, 5-Fu (10 mg/kg) group, and compound 18 (25 mg/kg) group. An intravenous injection of 5-Fu (10 mg/kg) was administered into the corresponding mice group every three days, while the mice in compound 18 group received intragastric administration of 25 mg/kg compound 18 per day for 21 days. Tumor diameter and body weight were measured every two days, followed by the euthanization of the mice after 34 days, after which tumor weights were.

Compound	IC50 (MGC-803; Homo sapiens, MGC-803, 72 h) [µM]	IC50 (MCF-7; Homo sapiens, MCF7, 72 h) [µM]	IC50 (PC-9; Homo sapiens, PC-9, 72 h) [µM]	IC50 (A549; Homo sapiens, A549, 72 h) [µM]	IC50 (H1975; Homo sapiens, NCI-H1975, 72 h) [µM]	IC50 (GES-1; Homo sapiens, GES1) [µM]	melting point [°C]	IC50 (MGC-803; 72 h) [µM]	IC50 (MCF-7; 72 h) [µM]	IC50 (PC-9; 72 h) [µM]	IC50 (A549; 72 h) [µM]	IC50 (H1975; 72 h) [µM]	IC50 (GES-1) [µM]	average tumor volume [1]	body weight [1]	tumor weight [1]
O=[N+]([O-])c1ccc(Nc2nc(-c3ccccc3)nc3ccccc23)cc1 [compound 10, N-(4-Nitrophenyl)-2-phenylquinazolin-4-amine]	8.32 ± 2.06	12.2 ± 1.91	12.5 ± 2.83	15.7 ± 1.89	25.8 ± 2.2	> 30										
c1ccc(-c2nc(Nc3cccc4ccccc34)c3ccccc3n2)cc1 [compound 15, N-(Naphthalen-1-yl)-2-phenylquinazolin-4-amine]	18.9 ± 2.82	> 30	15.4 ± 1.92	12.2 ± 1.59	10.4 ± 1.88	> 30	204 to 208									
Clc1ccc(Nc2nc(-c3ccccc3)nc3ccccc23)cc1 [compound 8, N-(4-Chlorophenyl)-2-phenylquinazolin-4-amine]	3.57 ± 0.89	6.96 ± 1.57	8.75 ± 1.59	6.58 ± 1.31	10.6 ± 2.46	> 30										
COc1cc(Nc2nc(-c3ccccc3)nc3ccccc23)cc(OC)c1OC [compound 14, 2-Phenyl-N-(3,4,5-trimethoxyphenyl)quinazolin-4-amine]	2.12 ± 0.97	3.21 ± 2.28	5.35 ± 1.82	8.72 ± 1.53	13.2 ± 1.86	19.6 ± 2.58										
Fc1ccc(Nc2nc(-c3ccccc3)nc3ccccc23)cc1 [compound 7, N-(4-Fluorophenyl)-2-phenylquinazolin-4-amine]	4.15 ± 1.16	8.75 ± 1.76	10.6 ± 2.16	4.82 ± 0.99	12.6 ± 2.89	20.8 ± 3.29										
O=c1[nH]cc(F)c(=O)[nH]1 [5-Fu, reference compound]								4.11 ± 0.72	4.51 ± 1.23	3.68 ± 1.06	5.12 ± 1.73	2.68 ± 0.86	3.26 ± 1.07	decreased the average tumor volume	did not cause significant changes in body weight	decreased the average tumor volume and tumor weight
O=C(/C=C/c1ccc(Cl)cc1)c1ccc(Nc2nc(-c3ccccc3)nc3ccccc23)cc1 [compound 17, (E)-3-(4-Chlorophenyl)-1-(4-((2-phenylquinazolin-4-yl)amino)phenyl)prop-2-en-1-one]	1.39 ± 0.26	2.37 ± 0.35	1.89 ± 0.67	1.46 ± 0.16	4.75 ± 0.81	23.4 ± 2.83	263 to 267									
Cc1ccc(Nc2nc(-c3ccccc3)nc3ccccc23)cc1 [compound 12, 2-Phenyl-N-(p-tolyl)quinazolin-4-amine]	5.81 ± 2.41	10.6 ± 1.67	15.3 ± 1.53	8.56 ± 1.72	19.4 ± 2.38	24.3 ± 1.96										
COc1ccc(Nc2nc(-c3ccccc3)nc3ccccc23)cc1 [compound 13, N-(4-Methoxyphenyl)-2-phenylquinazolin-4-amine]	4.98 ± 1.26	8.36 ± 1.92	6.83 ± 1.29	5.69 ± 1.68	> 30	21.3 ± 2.79										
O=C(/C=C/c1ccc2ccccc2c1)c1ccc(Nc2nc(-c3ccccc3)nc3ccccc23)cc1 [compound 19, (E)-3-(Naphthalen-2-yl)-1-(4-((2-phenylquinazolin-4-yl)amino)phenyl)prop-2-en-1-one]	1.56 ± 0.92	1.96 ± 0.56	1.39 ± 0.25	2.55 ± 0.49	2.61 ± 0.59	19.8 ± 2.21	281 to 286									
Brc1ccc(Nc2nc(-c3ccccc3)nc3ccccc23)cc1 [compound 9, N-(4-Bromophenyl)-2-phenylquinazolin-4-amine]	1.89 ± 0.59	5.15 ± 1.16	4.31 ± 0.96	4.75 ± 1.36	6.65 ± 1.57	18.6 ± 1.72	187 to 193									
FC(F)(F)c1ccc(Nc2nc(-c3ccccc3)nc3ccccc23)cc1 [compound 11, 2-Phenyl-N-(4-(trifluoromethyl)phenyl)quinazolin-4-amine]	11 ± 1.93	15.7 ± 1.82	20.8 ± 2.16	25.4 ± 3.11	22.9 ± 2.69	25.4 ± 3.51	190 to 195									
O=C(/C=C/c1ccc(F)cc1)c1ccc(Nc2nc(-c3ccccc3)nc3ccccc23)cc1 [compound 16, (E)-3-(4-Fluorophenyl)-1-(4-((2-phenylquinazolin-4-yl)amino)phenyl)prop-2-en-1-one]	2.02 ± 0.38	3.96 ± 0.92	2.75 ± 0.66	1.98 ± 0.26	3.67 ± 0.93	18.8 ± 1.56	252 to 256									
c1ccc(Nc2nc(-c3ccccc3)nc3ccccc23)cc1 [compound 6, N,2-Diphenylquinazolin-4-amine]	6.23 ± 0.12	12.6 ± 0.16	15.8 ± 0.52	10.3 ± 0.98	20.1 ± 1.62	> 30										
